Test results from PubChem BioAssay AID608 (Sanford-Burnham Center for Chemical Genomics, 2007).
Calls of active or inactive are those of the source. No rule for the calls is given here.

Molecular target: Peptidyl-prolyl cis-trans isomerase FKBP1A (Homo sapiens) (UniProt P62942)
Assay: small-molecule binding to FKBP12 – biophysical, NMR detection (AID 608)
Conditions: purified FKBP12

Peptidyl-prolyl cis-trans isomerase FKBP1A (Homo sapiens), sequence (P62942 whole entry, looked up): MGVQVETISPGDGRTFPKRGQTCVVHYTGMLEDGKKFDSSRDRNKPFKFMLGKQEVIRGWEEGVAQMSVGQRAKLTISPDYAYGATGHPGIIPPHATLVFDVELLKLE

SMILES | Kd
Cc1nn(CC(=O)Nc2ccccc2)c(=O)c2ccccc12 | > 4 mM (inactive)
CCC(=O)Nc1ccccc1NC(C)=O | > 4 mM (inactive)
O=C(O)c1ccc(Nc2nncc(=O)[nH]2)cc1 | > 4 mM (inactive)
O=C(O)CN1C(=O)c2cccc([N+](=O)[O-])c2C1=O | > 4 mM (inactive)
C/C=C/C(=O)Nc1ccc(NC(C)=O)cc1 | > 4 mM (inactive)
O=C1C2C3C=CC(C3)C2C(=O)N1c1ccccn1 (configuration not stated) | > 4 mM (inactive)
CNC[C@@H](O)c1ccc(O)c(O)c1 | > 4 mM (inactive)
OCC1CNc2ccccc2O1 (configuration not stated) | > 4 mM (inactive)
CC(=O)Nc1c(Cl)cnn(-c2ccccc2)c1=O | > 4 mM (inactive)
Nc1ncnc(NCCCO)c1[N+](=O)[O-] | > 4 mM (inactive)
CSc1ncc(C(=O)O)n1Cc1ccccc1 | > 4 mM (inactive)
O=C(O)c1cccc(N2C(=O)C3CC=CCC3C2=O)c1 (configuration not stated) | > 4 mM (inactive)
COC(=O)[C@]1(C)CC[C@]2(C)CC[C@]3(C)C4=CC=C5C(=CC(=O)C(O)=C5C)[C@]4(C)CC[C@@]3(C)[C@@H]2C1 | > 4 mM (inactive)
COC(=O)CSc1nc(N)cc(=O)[nH]1 | > 4 mM (inactive)
O=C(Nc1ccon1)c1cccc(C(F)(F)F)c1 | > 4 mM (inactive)
Nc1ccc2c(c1)N1CCN=C1S2 | > 4 mM (inactive)
CC(=O)Nc1ccccc1-c1ccccc1NC(C)=O | > 4 mM (inactive)
Cc1[nH]c2ccccc2c1C(=O)CSc1ncn[nH]1 | > 4 mM (inactive)
Cc1c(N=Cc2ccco2)c(=O)n(-c2ccccc2)n1C | > 4 mM (inactive)
O=C(O)c1cccnc1N1CCOCC1 | > 4 mM (inactive)
O=C(C(Sc1ccccc1)c1ccccc1)N1CCOCC1 (configuration not stated) | 0.146 mM
O=c1ccc2cc(O[C@@H]3O[C@H](CO)[C@@H](O)[C@H](O)[C@H]3O)c(O)cc2o1 | > 4 mM (inactive)
CCOC(=O)C1CCN(Cc2ccccc2)CC1 | > 4 mM (inactive)
Cc1ccc(NS(=O)(=O)N2CCCCC2)cc1Cl | inactive
c1ccc(CSc2ncccn2)cc1 | > 4 mM (inactive)

SMILES | Kd
CC(=O)Nc1nnc(-c2ccco2)o1 | > 4 mM (inactive)
O=C1NC(=O)C(C(=S)Nc2ccccc2)C(=O)N1 | > 4 mM (inactive)
OCc1ccc(-c2cccs2)s1 | > 4 mM (inactive)
Cc1nnc(NCCN2CCOCC2)[nH]c1=O | > 4 mM (inactive)
CCSc1nnc2[nH]c(=O)cc(C)n12 | > 4 mM (inactive)
O=C1CC(c2ccccc2)n2ncnc2N1 (configuration not stated) | > 4 mM (inactive)
NC(=O)CS(=O)(=O)c1ccc2ccccc2c1 | > 4 mM (inactive)
CC1(C)NC(=O)N(CN2CCOCC2)C1=O | > 4 mM (inactive)
O=C1NC(=S)N/C1=C\c1cccnc1 | > 4 mM (inactive)
Cc1ccc(C)n1NC(=O)c1cccs1 | > 4 mM (inactive)
N=c1n(N)c2ccccc2n1CCO | > 4 mM (inactive)
CC(=O)Nc1ccc2c(c1)CCC2=O | > 4 mM (inactive)
O=c1c2ccccc2nc2n1CCS2 | > 4 mM (inactive)
NC(=O)CCS(=O)(=O)CCN1CCOCC1 | > 4 mM (inactive)
COC1=CC23CCCN2CCc2cc4c(cc2C3C1O)OCO4 (configuration not stated) | > 4 mM (inactive)
CC(C)=CCCC1(C)C=Cc2c(O)c3c(c(CC=C(C)C)c2O1)OC12C(=CC4CC1C(C)(C)OC2(C/C=C(/C)C(=O)O)C4O)C3=O (configuration not stated) | > 4 mM (inactive)
O=C(CSc1nnc2ccccn12)N1CCOCC1 | 0.221 mM
Fc1cccc(Cl)c1CN1CCNCC1 | > 4 mM (inactive)
CCNC(=S)N1CCCC(C(N)=O)C1 (configuration not stated) | > 4 mM (inactive)
C[C@H]1C[C@@H](O)[C@]2(O)[C@@]13CC(=O)OC[C@@]2(C)[C@](C)(O)C(=O)C3 | > 4 mM (inactive)
O=C(O)c1csc(-c2ccccc2)n1 | > 4 mM (inactive)
c1ccc(-c2noc(-c3ccc4c(c3)OCO4)n2)nc1 | > 4 mM (inactive)
O=C(O)CCSc1nc2ccccc2s1 | > 4 mM (inactive)
O=C(NN1C(=O)c2ccccc2C1=O)c1cccs1 | > 4 mM (inactive)
O=S1(=O)C=C(Nc2ccccc2)CC1 | 0.135 mM

SMILES | Kd
Cn1c(=O)c2c(ncn2CCN)n(C)c1=O | > 4 mM (inactive)
S=c1[nH]nc(-c2cccnc2)n1C1CCCCC1 | > 4 mM (inactive)
CNC(=O)c1ccccc1-c1ccccc1 | > 4 mM (inactive)
Cc1ccc(NC(=O)CC2NCCNC2=O)c(C)c1 (configuration not stated) | > 4 mM (inactive)
CSc1ccccc1NC(=O)c1ccncc1 | > 4 mM (inactive)
Cc1cc(C(=O)Nc2ccc3c(c2)OCCO3)c(C)o1 | > 4 mM (inactive)
Cc1ccc(O)c(NC(=O)c2ccco2)c1 | > 4 mM (inactive)
Nc1ccc2sccc2c1 | > 4 mM (inactive)
CCOc1ccc2nc(NS(C)(=O)=O)sc2c1 | > 4 mM (inactive)
CC1=C(/C=C/C(C)=C/C=C/C(C)=C/C=C/C=C(C)/C=C/C=C(C)/C=C/C2=C(C)CCCC2(C)C)C(C)(C)CCC1 | > 4 mM (inactive)
CCc1ccc2oc(-c3cc(N)cc(C)c3O)nc2c1 | > 4 mM (inactive)
CC(=O)Nc1cccc(-c2nc3ccccc3c(=O)o2)c1 | > 4 mM (inactive)
O=C(O)c1cccc2c1OCC2 | > 4 mM (inactive)
COc1ccc(C(C)=O)c(O)c1 | > 4 mM (inactive)
NC(=O)c1ccc(Cl)c(N2C(=O)CCC2=O)c1 | > 4 mM (inactive)
O=c1[nH]c2ccc(S(=O)(=O)NC3CC3)cc2[nH]1 | > 4 mM (inactive)
Cc1nc2ccccc2c(=O)n1CCCO | > 4 mM (inactive)
COc1cc2c(cc1NS(=O)(=O)N1CCCCC1)oc1ccccc12 | > 4 mM (inactive)
O=c1c(Cl)c(NCCO)ncn1-c1ccccc1 | > 4 mM (inactive)
Cc1ccccc1C(=O)Nn1cnnc1 | > 4 mM (inactive)
Cc1noc(C)c1C(=O)N1CCc2ccccc2C1 | > 4 mM (inactive)
O=c1[nH]c(=O)n(-c2ccc(F)cc2)c(O)c1/C=C1/C=CC=N1 | > 4 mM (inactive)
Nc1[nH]c(=S)ncc1S(=O)(=O)c1ccccc1 | > 4 mM (inactive)
O=C(CSc1ncnc2ccccc12)NCCCO | > 4 mM (inactive)
O=C(Nc1ccccc1[N+](=O)[O-])c1ccc(=O)[nH]n1 | > 4 mM (inactive)

SMILES | Kd
COc1cccc(-c2csc(NC(C)=O)n2)c1 | > 4 mM (inactive)
NCc1ccc(-n2cccn2)cc1 | > 4 mM (inactive)
O=C(/C=C/c1ccc(O)c(O)c1)O[C@@H]1C[C@](O)(C(=O)O)C[C@@H](O)[C@H]1O | > 4 mM (inactive)
CC(=O)NC1(NC(C)=O)CCN(C)CC1 | > 4 mM (inactive)
O=c1/c(=C/c2cccs2)sc2ncnn12 | > 4 mM (inactive)
Nc1c(S(=O)(=O)c2ccccc2)csc1C(=O)O | > 4 mM (inactive)
Cc1nnc(NC(=O)C(C)Sc2nncn2C)s1 (configuration not stated) | > 4 mM (inactive)
CNC(=S)Nc1ccc(OC)cc1C | > 4 mM (inactive)
COc1cc2c(cc1OC)[C@@H]1C(=O)c3ccc4oc(C(C)C)cc4c3O[C@@H]1CO2 | > 4 mM (inactive)
CCOC(=O)c1cnc2cc(C)nn2c1C | > 4 mM (inactive)
O=C(O)CCCNC(=O)c1ccccc1C(=O)O | > 4 mM (inactive)
CC(=O)C1CC[C@H]2C3CC[C@H]4C[C@H](O)CC[C@]4(C)C3CC[C@]12C (some centres not stated) | > 4 mM (inactive)
O=c1[nH]cnc2c1nnn2Cc1ccccc1 | > 4 mM (inactive)
O=C(c1cc2ccccc2o1)c1nc2c(n1O)CCCCC2 | > 4 mM (inactive)
O=C1CSC(=O)N1CNc1ccccc1 | > 4 mM (inactive)
Cc1nn(C)c(N2CCOCC2)c1N | > 4 mM (inactive)
CS(=O)(=O)c1ccccc1C(=O)Nc1nccs1 | > 4 mM (inactive)
COc1cc(CNCCc2ccc(S(N)(=O)=O)cc2)ccc1OCC(=O)N1CCOCC1 | > 4 mM (inactive)
Nc1ccc2[nH]ccc2c1 | > 4 mM (inactive)
O=C(O)c1ccc2sccc2c1 | > 4 mM (inactive)
OCc1cccs1 | > 4 mM (inactive)
OCc1ccc2occc2c1 | > 4 mM (inactive)
CCC(=O)Oc1ccc(N2C(=O)CCC2=O)cc1 | > 4 mM (inactive)
CN(C)S(=O)(=O)c1ccc(NC=O)cc1 | > 4 mM (inactive)
O=C(O)c1cccc2c1OCCCO2 | > 4 mM (inactive)

SMILES | Kd
Nc1cc(F)ccc1-n1ccnc1 | > 4 mM (inactive)
NC(=O)c1ccc(SCC(=O)O)c([N+](=O)[O-])c1 | > 4 mM (inactive)
Cc1nc(N)sc1C(=O)N/N=C/c1ccncc1 | > 4 mM (inactive)
Nc1ccncc1 | > 4 mM (inactive)
COc1ccc2c(c1)O[C@@H]1COc3cc(OC)c(OC)cc3[C@@H]1C2=O | > 4 mM (inactive)
Cc1ccccc1NC(=O)C1CC(=O)N=C(N)S1 (configuration not stated) | > 4 mM (inactive)
COC(=O)CCC(C)[C@H]1CCC2C3C(C[C@H](O)[C@@]21C)[C@@]1(C)CC[C@@H](O)C[C@H]1C[C@H]3O (some centres not stated) | > 4 mM (inactive)
N=Cc1c(O)n(-c2cccc(Cl)c2)c(=O)[nH]c1=O | > 4 mM (inactive)
NN1C(=O)/C(=C/c2ccc(O)c(O)c2)SC1=S | > 4 mM (inactive)
Cc1ccc(SCc2cc(=O)n3[nH]cnc3n2)cc1 | > 4 mM (inactive)
O=C(Cc1cccs1)N1CCOCC1 | > 4 mM (inactive)
CC12CCC3C(CC3(C)C)C(C)(CCC1=O)O2 (configuration not stated) | > 4 mM (inactive)
O=C(Nc1ccc(-c2nnco2)cc1)c1ccccc1 | > 4 mM (inactive)
O=C(O)C(O)C(O)C(O)C(O)C(=O)O (configuration not stated) | > 4 mM (inactive)
OCc1ccc(-n2ccnc2)cc1 | > 4 mM (inactive)
O=C(O)Cn1nnn(-c2ccccc2)c1=S | > 4 mM (inactive)
C=C1C(N)CC2CC1C2(C)C (configuration not stated) | > 4 mM (inactive)
O=C(C1CCC(C(=O)N2CCCC2)CC1)N1CCCC1 (configuration not stated) | > 4 mM (inactive)
CSc1nnnn1-c1cccc(O)c1 | > 4 mM (inactive)
COc1ccc(C(O)c2nccn2C)cc1 (configuration not stated) | > 4 mM (inactive)
Cc1ccn(S(=O)(=O)c2ccc(C(C)(C)C)cc2)n1 | > 4 mM (inactive)
CC1(C)CC2C1CCC1(C)OC2(C)CCC1O (configuration not stated) | > 4 mM (inactive)
